Measured values published in paper PMC11345504 (Current Research in Insect Science, 2024).
Each block holds one compound with its values, some of them ahead of it.

Tests used:
[1] = target: T1, RpalOR1 (Rhynchophorus palmarum, UniProt A0A8A5RCH6); experiment: single-sensillum recording, Drosophila at1 OSNs; assay type: cell-based; conditions: 500 ms, agonist
T1 sequence (A0A8A5RCH6 1-411): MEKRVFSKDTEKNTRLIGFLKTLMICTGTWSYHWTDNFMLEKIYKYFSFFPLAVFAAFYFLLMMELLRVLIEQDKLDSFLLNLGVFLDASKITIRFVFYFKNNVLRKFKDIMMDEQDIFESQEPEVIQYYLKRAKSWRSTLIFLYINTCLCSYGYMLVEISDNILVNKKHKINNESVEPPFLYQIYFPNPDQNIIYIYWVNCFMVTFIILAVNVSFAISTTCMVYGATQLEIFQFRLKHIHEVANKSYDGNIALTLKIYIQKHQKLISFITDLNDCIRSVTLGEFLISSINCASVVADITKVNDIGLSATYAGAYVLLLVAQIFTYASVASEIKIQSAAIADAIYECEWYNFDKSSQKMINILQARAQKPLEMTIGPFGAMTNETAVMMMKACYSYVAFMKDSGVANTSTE
T1 sequence (Q9VNB5 1-486 partner): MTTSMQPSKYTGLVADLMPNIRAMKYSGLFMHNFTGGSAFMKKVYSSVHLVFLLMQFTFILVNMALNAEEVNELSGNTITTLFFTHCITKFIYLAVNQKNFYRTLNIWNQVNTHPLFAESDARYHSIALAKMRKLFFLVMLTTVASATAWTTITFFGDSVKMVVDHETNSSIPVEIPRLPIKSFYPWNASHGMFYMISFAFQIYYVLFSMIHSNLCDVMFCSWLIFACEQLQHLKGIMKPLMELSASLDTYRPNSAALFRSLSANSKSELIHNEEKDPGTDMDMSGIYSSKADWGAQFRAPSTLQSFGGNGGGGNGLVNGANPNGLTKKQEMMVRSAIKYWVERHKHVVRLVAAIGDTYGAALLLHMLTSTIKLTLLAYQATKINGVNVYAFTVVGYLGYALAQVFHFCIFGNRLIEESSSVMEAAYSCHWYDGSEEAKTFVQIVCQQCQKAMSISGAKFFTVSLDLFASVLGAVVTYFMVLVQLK

[2] = target: T1, RpalOR1; experiment: single-sensillum recording, Drosophila at1 OSNs; assay type: cell-based; conditions: 1 µg in hexane on stimulus cartridge, 500 ms; agonist
[3] = target: T2, RferOR1 (Rhynchophorus ferrugineus, UniProt A0A4P8W8S8); experiment: single-sensillum recording, Drosophila at1 OSNs; assay type: cell-based; conditions: […] µg in paraffin oil on stimulus cartridge, […] ms; agonist
T2 sequence (A0A4P8W8S8 1-411): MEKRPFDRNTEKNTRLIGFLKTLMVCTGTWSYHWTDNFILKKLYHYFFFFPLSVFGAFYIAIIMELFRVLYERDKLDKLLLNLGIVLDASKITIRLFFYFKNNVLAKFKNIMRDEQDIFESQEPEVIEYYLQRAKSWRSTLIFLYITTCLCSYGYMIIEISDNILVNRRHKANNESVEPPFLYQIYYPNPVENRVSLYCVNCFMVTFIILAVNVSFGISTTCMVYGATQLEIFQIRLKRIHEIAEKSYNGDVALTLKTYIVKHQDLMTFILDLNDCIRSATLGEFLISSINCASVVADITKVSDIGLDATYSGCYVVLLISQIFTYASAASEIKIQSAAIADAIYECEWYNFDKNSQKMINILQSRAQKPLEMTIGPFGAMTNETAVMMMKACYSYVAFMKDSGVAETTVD
T2 sequence (Q9VNB5 1-486 partner): T1 sequence (Q9VNB5 1-486 partner)

[4] = target: T1, RpalOR1; conditions: 100 µg in paraffin oil on stimulus cartridge, 500 ms; agonist
[5] = 1 µg in hexane on stimulus cartridge
[6] = 100 µg in paraffin oil on stimulus cartridge

SMILES: CCCC(=O)C(C)CCC (stereo not drawn) [5-methyloctan-4-one]
- single-sensillum recording, Drosophila at1 OSNs [1, 5]: We also found a response to 5-methyloctan-4-one

SMILES: CCCCC(O)C(C)CCC (stereo not drawn) [ferrugineol, 4-methylnonan-5-ol]
- average response at 1 μg [2]: 112 action potentials per second

SMILES: CCCCCC(=O)OCC [ethyl hexanoate]
- single-sensillum recording, Drosophila at1 OSNs [1, 6]: propyl butyrate, butyl butyrate, ethyl valerate and ethyl hexanoate
- single-sensillum recording, Drosophila at1 OSNs [3]: propyl butyrate, butyl butyrate, ethyl valerate and ethyl hexanoate

SMILES: CCCCC(=O)CCCC [nonan-5-one]
- single-sensillum recording, Drosophila at1 OSNs [1, 5]: The two last agonists were (E)‑oct-2-en-4-ol and nonan-5-one

SMILES: C/C=C/C(O)CCCC (stereo not drawn) [(E)‑oct-2-en-4-ol]
- single-sensillum recording, Drosophila at1 OSNs [1, 5]: The two last agonists were (E)‑oct-2-en-4-ol and nonan-5-one

- average response at 1 μg [2]: 27 action potentials per second
SMILES: C/C=C/C(O)C(C)CC (stereo not drawn) [(E)−5-methylhept-2-en-4-ol]

SMILES: CCCCC(O)C(C)CC (stereo not drawn) [phoenicol, 3-methyloctan-4-ol]
- single-sensillum recording, Drosophila at1 OSNs [1, 5]: RpalOR1 was activated by phoenicol as well as nonan-5-ol

SMILES: CCCOC(=O)CCC [propyl butyrate]
- average response at 100 μg [4]: 63 action potentials per second
- single-sensillum recording, Drosophila at1 OSNs [3]: both RpalOR1 and RferOR1 were significantly activated by the same palm tree esters: propyl butyrate

SMILES: CCCCC(O)CCCC [nonan-5-ol]
- single-sensillum recording, Drosophila at1 OSNs [1, 5]: RpalOR1 was activated by phoenicol as well as nonan-5-ol

SMILES: CCCCC(=O)OCC [ethyl valerate]
- single-sensillum recording, Drosophila at1 OSNs [1, 6]: propyl butyrate, butyl butyrate, ethyl valerate and ethyl hexanoate

SMILES: CCCCC(=O)C(C)CCC (stereo not drawn) [ferrugineone, 4-methylnonan-5-one]
- average response at 1 μg [2]: 103 action potentials per second

SMILES: CCCCOC(=O)CCC [butyl butyrate]
- single-sensillum recording, Drosophila at1 OSNs [1, 6]: significantly activated by the same palm tree esters: propyl butyrate, butyl butyrate
- single-sensillum recording, Drosophila at1 OSNs [3]: significantly activated by the same palm tree esters: propyl butyrate, butyl butyrate
